Test results taken from ChEMBL document CHEMBL3507680, “University of Dundee, Gates Library screen for HepG2 cell viability”.

Assay: Human HepG2 cell viability assay in 384 well format
Assay type: toxicity, cell-based
Design: dose 125 nL, time 70.5 hour; concentration not given beside the values
Conditions: HepG2 cells, read-out: Inhibition

N#Cc1ccccc1CN1CCCC(c2nccn2CC2CC2)C1 (stereo unspecified)
cytotoxicity at 70.5 h: 12.6%

CNC(=O)c1n[nH]c2c1C(c1cccc3[nH]ccc13)CC(=O)N2 (stereo unspecified)
cytotoxicity at 70.5 h: -3.23%

O=C(O)c1cn(CC2CCCN(c3nccc4occc34)C2)nn1 (stereo unspecified)
cytotoxicity at 70.5 h: -14.6%

COCc1cc(CN(C)C(=O)CCC(=O)Nc2cc(C)ccc2F)n[nH]1
cytotoxicity at 70.5 h: -6.52%

CCn1cc(CN2CCCC(c3[nH]ncc3-c3ccc(F)cc3)C2)cn1 (stereo unspecified)
cytotoxicity at 70.5 h: -19.8%

CCc1nc(CN(C)c2nccc(N3CCCC(O)C3)n2)no1 (stereo unspecified)
cytotoxicity at 70.5 h: -0.51%

COc1ccc2c(c1)OCC(CNc1cc(N)nc(SC)n1)C2 (stereo unspecified)
cytotoxicity at 70.5 h: -0.598%

CC(C)(C)CCN1CCCC(Cn2cc(CCO)nn2)C1 (stereo unspecified)
cytotoxicity at 70.5 h: -9.34%

Cn1cc(CN(CC2(O)CCNC2)C2CCCCC2)cn1 (stereo unspecified)
cytotoxicity at 70.5 h: 5.59%

CN(CCCN1CCCC1)[C@@H]1c2ccccc2C2(CCNCC2)[C@H]1O
cytotoxicity at 70.5 h: 14.4%

O=C1NCCN1CCNc1cc(-c2ccccc2)nc2ccnn12
cytotoxicity at 70.5 h: -2.75%

Cc1nn(C)c(C)c1NC(=O)c1cccc(CN2CC[C@H](O)C2)c1
cytotoxicity at 70.5 h: -0.546%

CCc1cc(N2CCC(F)(F)CC2)n2nc(C)c(C)c2n1
cytotoxicity at 70.5 h: -7.1%

Cc1[nH]nc(CCC(=O)NCC2CCN(C3CCCCC3)C2)c1C (stereo unspecified)
cytotoxicity at 70.5 h: -4.71%

Cc1cc(C)n(C2CN(C(=O)CN3C(=O)CSc4ccccc43)C2)n1
cytotoxicity at 70.5 h: 0.11%

Cc1ccc(OCC(=O)N2CCN[C@H]3CS(=O)(=O)C[C@H]32)cn1
cytotoxicity at 70.5 h: -16.7%

CS(=O)(=O)NCc1cc2n(n1)CCCN(Cc1cc3ccccc3o1)C2
cytotoxicity at 70.5 h: -5.83%

CCc1cnc(NCC(c2ccncc2)N2CCOCC2)nc1 (stereo unspecified)
cytotoxicity at 70.5 h: -6.68%

CN(C)CCN(C)c1ccc(-c2nc(COc3ccccc3)no2)cn1
cytotoxicity at 70.5 h: 6.86%

CCN(CC)Cc1cc(C(=O)N2CC(C)(C)[C@@](C)(O)C2)c(C)o1
cytotoxicity at 70.5 h: 8.35%

Cn1c(Cn2cccn2)nnc1C1CCN(Cc2cccnc2)CC1
cytotoxicity at 70.5 h: -3.7%

COc1cc(C)cc(C(C(=O)O)N(C)Cc2ccon2)c1OC (stereo unspecified)
cytotoxicity at 70.5 h: -0.471%

OC1(CN2CCCC2)CCCN(c2ncnc3[nH]cnc23)C1 (stereo unspecified)
cytotoxicity at 70.5 h: -2.89%

Cn1cc(C#N)cc1C(=O)N1CCC2(CCCN(CC3CCC3)C2=O)C1 (stereo unspecified)
cytotoxicity at 70.5 h: -4.46%

Cn1cccc1C(=O)N1CCCC(Cn2cc(CO)nn2)C1 (stereo unspecified)
cytotoxicity at 70.5 h: -2.41%

Cc1ncncc1C(=O)N1C[C@H]2CC[C@@H]1CN(C(=O)c1ccncc1)C2
cytotoxicity at 70.5 h: -0.209%

COCc1ncc(CN2CCC(Oc3ccccc3C)CC2)cn1
cytotoxicity at 70.5 h: -16.4%

COCC(=O)NCc1cc2n(n1)CCCN(Cc1ccccc1SC)C2
cytotoxicity at 70.5 h: -6.55%

OCC(O)CN1CCc2onc(-c3ccc(C(F)(F)F)cc3)c2C1 (stereo unspecified)
cytotoxicity at 70.5 h: -8.17%

Cc1nccc(-c2ccccc2)c1C(=O)N1CCC2(CC(=O)NC2=O)C1 (stereo unspecified)
cytotoxicity at 70.5 h: -0.158%

O=C(COc1cccc(Cl)c1)N1CCOCC(O)(CN2CCCC2)C1 (stereo unspecified)
cytotoxicity at 70.5 h: -3.79%

CCc1cc(CN(C)C(=O)c2nnc(CN(C)C)o2)on1
cytotoxicity at 70.5 h: -4.97%

CCC[C@H]1CN(CCS(C)(=O)=O)C[C@@H]1NC(=O)c1ccn(C)n1
cytotoxicity at 70.5 h: -4.29%

CCc1ccccc1OC1CN(C(=O)c2ccsc2)C1
cytotoxicity at 70.5 h: -3.52%

Cc1ncsc1CN1CCC2(CC1)CC(=O)N(Cc1ccc(Cl)cc1)C2
cytotoxicity at 70.5 h: -3.74%

Cc1nn(C)c2nc(N(Cc3ccncc3)CC3CCCO3)sc12 (stereo unspecified)
cytotoxicity at 70.5 h: -5.1%

Cc1nc[nH]c1-c1nccn1CCN(C)S(C)(=O)=O
cytotoxicity at 70.5 h: 3.1%

O=C(CCc1cccs1)N1CCc2[nH]nc(COc3ccccc3)c2C1
cytotoxicity at 70.5 h: 2.22%

CCCS(=O)(=O)N1CCCC(CCC(=O)N(C)CCc2ccccn2)C1 (stereo unspecified)
cytotoxicity at 70.5 h: -0.331%

Cc1cncc(C(=O)N2CCC3(CC2)C(=O)Nc2ccccc23)c1
cytotoxicity at 70.5 h: -7.06%

CN(C)S(=O)(=O)c1ccc(CNC(=O)c2cn3c(n2)CNCC3)cc1
cytotoxicity at 70.5 h: 14.9%

Cn1c(CCC(=O)N2CCCC3(CC2)CNC(=O)O3)nc2cccnc21 (stereo unspecified)
cytotoxicity at 70.5 h: 44%

CN(Cc1ccccc1)c1ncccc1CNC1CCC1
cytotoxicity at 70.5 h: -2.38%

COCCCN(Cc1cnc(-c2cccs2)nc1)C1CCN(C)CC1
cytotoxicity at 70.5 h: -12%

c1cncc(NCCNC2CCSCC2)c1
cytotoxicity at 70.5 h: -2.74%

CCN1C[C@@H](C(=O)O)[C@H](c2cccc(OC)c2)C1
cytotoxicity at 70.5 h: 5.16%

COc1cccc(S(=O)(=O)N2CCN(C)[C@@H]3CS(=O)(=O)C[C@@H]32)c1
cytotoxicity at 70.5 h: -4.74%

O=c1cc(-c2ccncc2)nc(-c2ccc(CN3CC[C@H](O)C3)cc2)[nH]1
cytotoxicity at 70.5 h: -6.15%

Cc1cc(C(F)(F)F)nn1CCNC(=O)C(C)n1ccnc1C(C)C (stereo unspecified)
cytotoxicity at 70.5 h: 10.3%

CCc1nc(N)nc(N2CCCC3(CCN(C)CC3)CC2)c1C
cytotoxicity at 70.5 h: 0.239%

CCc1cnc(N)nc1N(C)CCc1cnn(C)c1
cytotoxicity at 70.5 h: 45.7%

C=C(C)COc1ccccc1C(=O)NCCCc1nnn[nH]1
cytotoxicity at 70.5 h: -13%

C=C(C)COc1ccccc1NC(=O)N1CCOCC(CO)C1 (stereo unspecified)
cytotoxicity at 70.5 h: 23.5%

CCc1ccc(C2CC(=O)Nc3cc(NS(C)(=O)=O)ccc32)o1 (stereo unspecified)
cytotoxicity at 70.5 h: 31.4%

Cc1cc(C)n(CC2(CNC(=O)C(c3ccccc3C)N(C)C)CC2)n1 (stereo unspecified)
cytotoxicity at 70.5 h: -10.8%

CCc1nn(C)c(Cl)c1CN(CC)Cc1cnn(CC)c1
cytotoxicity at 70.5 h: -6.7%

CCc1nnc(CN(C)c2cc(C)nc3c(C)c(C)nn23)o1
cytotoxicity at 70.5 h: -2.11%

COc1ccc(N2CCN(C(=O)CCn3nnnc3C)CC2(C)C)cc1
cytotoxicity at 70.5 h: 14%

CN(CCO)Cc1nnc(C2CCN(C(=O)C3CCOCC3)CC2)n1C
cytotoxicity at 70.5 h: 1.69%

CN(Cc1ccncn1)C(=O)CCC(=O)NC1CCCC1
cytotoxicity at 70.5 h: -9.64%

COCC(C)Nc1ccc(-c2nc(Cc3ccc(F)cc3)no2)cn1 (stereo unspecified)
cytotoxicity at 70.5 h: 27.4%

CSCCC1CC(=O)Nc2cc(O)c(C)cc21 (stereo unspecified)
cytotoxicity at 70.5 h: 25.3%

CCNc1ncc(C(=O)NC2COC3(CCCC3)C2)cn1 (stereo unspecified)
cytotoxicity at 70.5 h: -3.75%

COc1ccc(Cn2cc(C(=O)N(C)Cc3cnccn3)nn2)cc1
cytotoxicity at 70.5 h: -14.3%

Cc1nc2ccc(C(=O)N3CCN(CCO)[C@@H]4CS(=O)(=O)C[C@@H]43)cc2o1
cytotoxicity at 70.5 h: -5.42%

CC(C)C(=O)NCC(=O)NCC1CCN(c2cnn(C)c(=O)c2)CC1
cytotoxicity at 70.5 h: 23.1%

Cc1cc(C2CCC2)nc(N2CCC3(CCNC(=O)CC3)CC2)n1
cytotoxicity at 70.5 h: -13%

CCn1cc(C(=O)N2CCCC3(CCC(=O)N(CCC(C)C)C3)C2)cn1 (stereo unspecified)
cytotoxicity at 70.5 h: -5.07%

CCCc1nc(NCc2c(C)nn(CCC)c2C)c2cnn(C)c2n1
cytotoxicity at 70.5 h: -9.62%

CN(CCCc1nccn1C)c1nccc(N2CCC(O)C2)n1 (stereo unspecified)
cytotoxicity at 70.5 h: 7.29%

CC[C@H](Nc1nc(C(C)C)nc2c1cnn2C)c1ccccc1
cytotoxicity at 70.5 h: -8.04%

CN(Cc1cc[nH]n1)C(=O)c1cn(Cc2c(F)cccc2F)nn1
cytotoxicity at 70.5 h: -8.9%

COc1ccc(OCc2cc(C(=O)N3C[C@@H](C)O[C@@H](C)C3)n[nH]2)c(Cl)c1
cytotoxicity at 70.5 h: -8.42%

CCn1ncnc1CN1CCC(CNC(=O)c2cccc(C)c2)C1 (stereo unspecified)
cytotoxicity at 70.5 h: -15.4%

Cc1cc(C)n(C2CCN(c3ncnc4c3CCNCC4)C2)n1 (stereo unspecified)
cytotoxicity at 70.5 h: -9.03%

COc1ccc(Cl)cc1-n1nc(C2CCCC2)nc1Cn1cnnn1
cytotoxicity at 70.5 h: 5.4%

CC(C)C1CN(C(=O)c2cc(C3CC3)n[nH]2)CCC(=O)N1CC1CC1 (stereo unspecified)
cytotoxicity at 70.5 h: -3.1%

CSCc1noc(CNC(=O)C2CCN(C3CCCCC3)CC2)n1
cytotoxicity at 70.5 h: -21.4%

COc1cc(NCC(O)CN2CCCCCC2)ncn1 (stereo unspecified)
cytotoxicity at 70.5 h: -7.58%

Cc1nc(C(C)N2Cc3ncccc3C2=O)cs1 (stereo unspecified)
cytotoxicity at 70.5 h: -12.4%

CCNC(=O)[C@@H]1C[C@@H](NC(=O)c2cccn2C)CN1CCCSC
cytotoxicity at 70.5 h: -6.56%

CN1CCCCCC1C(=O)NCCCn1ncc2ccccc21 (stereo unspecified)
cytotoxicity at 70.5 h: -11.3%

Cc1cc2nc(C(C)C)cc(N(C)CC3CCCN(CCO)C3)n2n1 (stereo unspecified)
cytotoxicity at 70.5 h: -2.47%

CCn1cc(CN2CCC(CCC(=O)Nc3ccccc3Cl)CC2)cn1
cytotoxicity at 70.5 h: 12.4%

CC1CCN(S(=O)(=O)N2CCCC(c3cccc(C(=O)O)c3)C2)CC1 (stereo unspecified)
cytotoxicity at 70.5 h: -12.1%

Cc1cc(C(=O)N2CCCC(C(=O)c3nccn3C)C2)c(=O)[nH]c1C (stereo unspecified)
cytotoxicity at 70.5 h: 7.95%

CN(C)C(C(=O)NCc1cc(C(C)(C)C)n[nH]1)c1ccc(F)cc1 (stereo unspecified)
cytotoxicity at 70.5 h: -4.44%

Cc1cc(C2CCCCN2C(=O)CN2CC3(CCNCC3)OC2=O)no1 (stereo unspecified)
cytotoxicity at 70.5 h: -6.52%

COCCCN1CC2(CCCN(c3ncc4nc[nH]c4n3)C2)CCC1=O (stereo unspecified)
cytotoxicity at 70.5 h: -11.3%

CCOCC1CCN(C(=O)C(c2ccccc2F)N(C)C)CC1 (stereo unspecified)
cytotoxicity at 70.5 h: -8.49%

CCc1nc(N)nc(N2CCCC3(CCOCC3)C2)c1C
cytotoxicity at 70.5 h: -7.63%

C1CCC(c2nnc3sc(C4CCCO4)nn23)C1 (stereo unspecified)
cytotoxicity at 70.5 h: 10.1%

CC(C)N1CC(c2ncc(-c3ccc4c(c3)OCCO4)[nH]2)CC1=O (stereo unspecified)
cytotoxicity at 70.5 h: -5.64%

Cc1c(CNC(=O)C2CCCCCN2C)oc2ccccc12 (stereo unspecified)
cytotoxicity at 70.5 h: -0.804%

O=C(O)c1cc(-c2ccc3c(c2)OCO3)cc(S(=O)(=O)NC2CC2)c1
cytotoxicity at 70.5 h: -11.6%

Cc1cnc(NCC(C)(C)N2CCCCC2)nc1
cytotoxicity at 70.5 h: -5.95%

Cc1nn(CCO)cc1CN1CCCN(C2CCCC2)CC1
cytotoxicity at 70.5 h: 12.8%

CC(=O)N1CCc2nc(N(C)C)nc(NCCc3ccccc3)c2CC1
cytotoxicity at 70.5 h: -9.06%

CCCC1C=CCN1C(=O)c1cc(COc2ccc3c(c2)OCO3)[nH]n1 (stereo unspecified)
cytotoxicity at 70.5 h: -11%

CCCN1CC2(CCN(C)CC2)CC1C(=O)NCCn1nc(C)nc1C (stereo unspecified)
cytotoxicity at 70.5 h: 6.07%

CC(Nc1nc(-c2ccccc2)nc2c1CCNCC2)c1nccs1 (stereo unspecified)
cytotoxicity at 70.5 h: 2.31%

CC(c1cccc(-c2nccn2CCc2cn[nH]c2)c1)N(C)C (stereo unspecified)
cytotoxicity at 70.5 h: 4.99%

CC(C)[C@H]1CN(C2Cc3ccccc3C2)C[C@@H]1NS(C)(=O)=O
cytotoxicity at 70.5 h: 7.83%

COc1cc(N(C)CCCn2nc(C)cc2C)ncn1
cytotoxicity at 70.5 h: -10.8%

CC(C)CC(O)C1CCN(Cc2cnc(-c3cccs3)nc2)CC1 (stereo unspecified)
cytotoxicity at 70.5 h: 37.1%

O=C(c1csnn1)N1CCc2[nH]nc(COc3cccc(Cl)c3)c2C1
cytotoxicity at 70.5 h: -2.42%

Cc1nnsc1CNC(=O)Nc1cccc(N2CCN(C)C2=O)c1
cytotoxicity at 70.5 h: 5.12%

Cc1ncc(C(=O)N2CCCC(C(=O)c3nccn3C)C2)c(O)n1 (stereo unspecified)
cytotoxicity at 70.5 h: 9.55%

Cc1nc(C)c(CC(=O)N2C[C@@H](C(=O)O)[C@H](c3ccncc3)C2)s1
cytotoxicity at 70.5 h: -0.442%

c1cc2c(cc1-n1nc(C3CC3)nc1-c1csnn1)OCCO2
cytotoxicity at 70.5 h: 2.73%

CN1CC2(CCN(Cc3cccc(C#N)c3)CC2)CC1=O
cytotoxicity at 70.5 h: 20.6%
